Measurements published in patent publication US7608716B2, “Pyrazolonaphthyridine derivative” (Aska Pharmaceutical Co., Ltd., priority 2002, dated 2009).

Columns and labels:
CYP3A4 = target: T1, CYP3A4 (Homo sapiens, UniProt P08684); assay: Inhibition of drug-metabolizing enzyme CYP3A4 (CYP3A4/BFC kit); type: in vitro ADME; conditions: CYP3A4-expressing microsomes, BFC substrate, 37° C., 30 minutes; read-out: Inhibition of Drug-Metabolizing Enzymes (IC50; μM) CYP3A4
T1 construct: purchased BD Biosciences, NJ, USA; host or cells: CYP3A4-expressing system microsomes
T1 sequence (P08684 whole entry): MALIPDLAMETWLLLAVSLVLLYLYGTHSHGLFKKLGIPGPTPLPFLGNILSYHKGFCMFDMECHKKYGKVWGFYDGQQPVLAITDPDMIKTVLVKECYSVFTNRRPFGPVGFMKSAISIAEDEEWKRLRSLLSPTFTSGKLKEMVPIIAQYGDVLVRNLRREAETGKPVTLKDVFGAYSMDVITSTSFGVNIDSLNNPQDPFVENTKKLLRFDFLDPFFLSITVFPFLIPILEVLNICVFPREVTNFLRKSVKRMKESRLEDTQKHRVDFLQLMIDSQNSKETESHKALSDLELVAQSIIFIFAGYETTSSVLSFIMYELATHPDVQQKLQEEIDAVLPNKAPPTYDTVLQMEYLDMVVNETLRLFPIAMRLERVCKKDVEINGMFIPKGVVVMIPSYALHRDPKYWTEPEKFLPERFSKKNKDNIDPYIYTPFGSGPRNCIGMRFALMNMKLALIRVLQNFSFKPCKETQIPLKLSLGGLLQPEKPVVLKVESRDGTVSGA
Procedure: (§1) The inhibitory effect on CYP2D6 and CYP3A4 was determined using High Throughput Inhibitor Screening Kits: CYP2D6/AMMC and CYP3A4/BFC (both from BD Biosciences, NJ, USA). Briefly, each of NADPH regenerating systems, cofactors, and test compounds was dispensed into 96-well plates, followed by addition of each of fluorescent substrates, AMMC (CYP2D6) or BFC (CYP3A4). To each well were added CYP2D6-expressing system microsomes or CYP3A4-expressing system microsomes, and the plates were incubated at 37° C. for 30 minutes, and then read for fluorescent signals (CYP2D6: ex=390 nm, em=460 nm; CYP3A4: ex=409 nm, em=538 nm wherein excitation wavelength: ex and emission wavelength: em). Thus, each inhibitory efficacy on enzymes CYP2D6 and CYP3A4 was determined. Roflumilast was used for the reference compound in this assay.

[1] = system: T2, PDE IV isozymes separated from U937 culture cells; assay: PDE IV inhibition ([3H]-cAMP hydrolysis); type: biochemical; conditions: cAMP 1 μM substrate, 30° C., 20 minutes
T2 construct: PDE IV isozymes as used herein were separated from U937 culture cells by using an anion exchange chromatography
Procedure: PDE IV isozymes as used herein were separated from U937 culture cells by using an anion exchange chromatography. Type IV PDE isozyme was admixed with ethylene glycol (EG) to adjust the final EG concentration to 30%, then stored at −20° C. and diluted when used. The enzymatic activity for PDE IV was measured using cAMP as a substrate.
Each test compound was dissolved in DMSO to adjust the final concentration to 1% (2.5 μl/tube).
Incubation Buffer Solution (pH7.5):
• Tris-HCl (50 mM), magnesium chloride (6 mM), dithiothreitol (2.5 mM), 5-nucleotidase (4 μg/ml), bovine serum albumin (0.23 mg/ml), and cAMP (1 μM).
A mixture of the aforementioned test compound solution and the buffer solution was incubated at 30° C. for 20 minutes. The reaction was quenched by admixing with 1 ml of anion exchange resin slurry (AG1-X8, 200-400 meshes, chloride form; Bio-Rad) to absorb unreacted substrates. After the reaction stopped, the mixture was centrifuged at 800×g for 10 minutes, and the resulting supernatant was collected with vials in 250 μl aliquots. To each vial was added 5 ml of ACS-II (scintillator, Amersham). The radioactivity was measured with a liquid scintillator counter for [^3H]-adenosine and set as the PDE IV activity.

[2] = system: lung eosinophil infiltration; assay: Inhibition of lung eosinophil infiltration (OVA-sensitized, BALF); type: in vivo, Hartley guinea-pigs; conditions: Cavia porcellus, guinea-pigs, oral, 1 hour before OVA inhalation, BALF eosinophils at 24 hours, read-out: Inhibition of Lung Eosinophil Infiltration ED50: mg/kg orally
Procedure: Hartley guinea-pigs were sensitized by inhaling twice 1% ovalbumin (OVA) in a physiological saline for 10 minutes with a nebulizer (Atom Medical Corporation, Japan) at an interval of 1 week. The animals were orally given a suspension of test compounds at a dose of 0.03 to 3 mg/2 mL/kg one week after the final sensitization. One hour later, the animals were exposed to antigens by inhalation of 2% OVA in a physiological saline for 5 minutes with a nebulizer. Thirty minutes before the antigen challenge, the animals were intraperitoneally pretreated with pyrilamine at a dose of 10 mg/kg to avoid fatality due to anaphylactic shock. Bronchoalveolar lavage fluid (BALF) samples were collected 24 hours after the exposure by inhalation of antigens, and eosinophils were counted.

CYP2D6 = target: T3, CYP2D6 (Homo sapiens, UniProt P10635); assay: Inhibition of drug-metabolizing enzyme CYP2D6 (CYP2D6/AMMC kit); type: in vitro ADME; conditions: CYP2D6-expressing microsomes, AMMC substrate, 37° C., 30 minutes; read-out: Inhibition of Drug-Metabolizing Enzymes (IC50; μM) CYP2D6
T3 construct: purchased BD Biosciences, NJ, USA; host or cells: CYP2D6-expressing system microsomes
T3 sequence (P10635 whole entry): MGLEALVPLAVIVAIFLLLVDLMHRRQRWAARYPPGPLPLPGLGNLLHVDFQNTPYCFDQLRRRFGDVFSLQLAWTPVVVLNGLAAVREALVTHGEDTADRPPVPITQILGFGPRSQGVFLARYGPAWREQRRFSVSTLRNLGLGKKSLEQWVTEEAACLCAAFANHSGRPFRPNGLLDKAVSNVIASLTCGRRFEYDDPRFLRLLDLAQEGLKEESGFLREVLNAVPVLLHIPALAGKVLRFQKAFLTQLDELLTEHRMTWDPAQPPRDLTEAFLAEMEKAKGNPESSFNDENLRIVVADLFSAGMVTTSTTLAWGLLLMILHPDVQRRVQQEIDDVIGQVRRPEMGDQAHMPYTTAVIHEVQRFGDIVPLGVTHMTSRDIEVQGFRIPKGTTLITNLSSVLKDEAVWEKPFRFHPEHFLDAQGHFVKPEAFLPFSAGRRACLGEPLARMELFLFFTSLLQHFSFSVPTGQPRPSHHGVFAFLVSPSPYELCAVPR
Procedure: as §1

rats = assay: Toxicology study (2-weeks administration to rats); type: in vivo; conditions: oral, 1, 5, or 25 mg/5 ml/kg
Procedure: Each compound of the present invention (Example Nos. 9 and 33) was administered orally to rats (6 animals per group) as a test compound. […] The test compound was suspended in 0.5% CMC-Na solution and given orally to the animal at a dose of 1, 5, or 25 mg/5 ml/kg in a forced manner.

Row | Structure (SMILES) | IC50 (CYP3A4) [µM] | IC50 [1] [µM] | ED50 [2] [mg/kg] | IC50 (CYP2D6) [µM] | Abnormality in other parameters (rats) | Body weight gain (rats) | Mortality (rats)
1 | O=c1c2c(Cc3ccc(F)cc3)n[nH]c2c2cccnc2n1-c1ccccc1 [Example No. 33, 3-(4-fluorobenzyl)-5-phenyl-1H-pyrazolo[4,3-c][1,8]naphthyridin-4 (5H)-one] | 6.2 | 0.068 | 0.03 | > 10 | no clear abnormality was observed | No significant reduction of body weight gains was observed | None of the animals were died
2 | O=c1c2c(Cc3ccccc3)n[nH]c2c2cccnc2n1-c1ccccc1 [Example No. 9, 3-benzyl-5-phenyl-1H-pyrazolo[4,3-c][1,8]naphthyridin-4 (5H)-one] | 8.5 | 0.084 | < 0.03 | > 10 | no clear abnormality was observed | No significant reduction of body weight gains was observed | None of the animals were died
